Measured values: the supplement of paper PMC13380429

Experiments:
Conditions in all cases: 72 h
[1] = tested on: HepG2; assay: drug sensitivity score (DSS) for viability; higher = more toxic; extreme values may be limits of the assay
[2] = tested on: Calu-3; assay: as above
[3] = tested on: Caco-2; assay: as above
[4] = tested on: Vero E6; assay: as above
[5] = tested on: U2OS; assay: as above
[6] = tested on: HepG2; assay: relative viability EC50 (midpoint between 100% and the lowest measured viability); higher = less toxic
[7] = tested on: HepG2; assay: cell viability relative to DMSO; higher = less toxic
[8] = tested on: Calu-3; assay: as above
[9] = tested on: Caco-2; assay: as above
[10] = tested on: Vero E6; assay: as above
[11] = tested on: U2OS; assay: as above
[12] = tested on: Caco-2; assay: relative viability EC50 (midpoint between 100% and the lowest measured viability); higher = less toxic
[13] = tested on: Vero E6; assay: as above
[14] = tested on: U2OS; assay: as above
[15] = tested on: Calu-3; assay: as above

| SMILES | drug sensitivity score [1] | drug sensitivity score [2] | drug sensitivity score [3] | drug sensitivity score [4] | drug sensitivity score [5] | relative viability EC50 [6] [µM] | cell viability ([7]; 1 nM) [%] | cell viability ([7]; 10 nM) [%] | cell viability ([7]; 100 nM) [%] | cell viability ([7]; 1000 nM) [%] | cell viability ([7]; 10000 nM) [%] | cell viability ([8]; 1 nM) [%] | cell viability ([8]; 10 nM) [%] | cell viability ([8]; 100 nM) [%] | cell viability ([8]; 1000 nM) [%] | cell viability ([8]; 10000 nM) [%] | cell viability ([9]; 1 nM) [%] | cell viability ([9]; 10 nM) [%] | cell viability ([9]; 100 nM) [%] | cell viability ([9]; 1000 nM) [%] | cell viability ([9]; 10000 nM) [%] | cell viability ([10]; 1 nM) [%] | cell viability ([10]; 10 nM) [%] | cell viability ([10]; 100 nM) [%] | cell viability ([10]; 1000 nM) [%] | cell viability ([10]; 10000 nM) [%] | cell viability ([11]; 1 nM) [%] | cell viability ([11]; 10 nM) [%] | cell viability ([11]; 100 nM) [%] | cell viability ([11]; 1000 nM) [%] | cell viability ([11]; 10000 nM) [%] | relative viability EC50 [12] [µM] | relative viability EC50 [13] [µM] | relative viability EC50 [14] [µM] | relative viability EC50 [15] [µM] |
| --- | --- | --- | --- | --- | --- | --- | --- | --- | --- | --- | --- | --- | --- | --- | --- | --- | --- | --- | --- | --- | --- | --- | --- | --- | --- | --- | --- | --- | --- | --- | --- | --- | --- | --- | --- |
| CCc1cc(-c2[nH]nc(C)c2-c2ccc3c(c2)OCCO3)c(O)cc1O | 8 | 3.7 | 4.1 | 2.1 | 1.6 | 1.68 | 94.7 | 91.1 | 104 | 81.1 | 11.1 | 93.2 | 94.6 | 101 | 89.7 | 58.8 | 103 | 92 | 98 | 89.7 | 53 | 99.4 | 104 | 101 | 95.9 | 67.9 | 99.2 | 94.9 | 98.3 | 99.7 | 65.6 | – | – | – | – |
| CCC(CC)Nc1nc(C)c(-c2ccc(OC(F)(F)F)cc2OC)nc1OC [NGD-98-2] | 0 | – | 0.6 | 0 | 0 | > 10 | 102 | 98.8 | 90.8 | 100 | 96.3 | – | – | – | – | – | 94.8 | 92.9 | 96.3 | 90.9 | 81.6 | 99.9 | 104 | 100 | 99.1 | 99.2 | 98.7 | 98.5 | 95.1 | 99.3 | 97.7 | > 10 | > 10 | > 10 | – |
| COC(=O)Nc1nc2cc(SC(C)C)ccc2[nH]1 [methiazole] | 6.1 | 4 | 4.8 | 4.7 | 5.4 | 1.53 | 95 | 105 | 95.7 | 83.4 | 35 | 95.5 | 97 | 103 | 81.6 | 64.6 | 104 | 100 | 99.1 | 86.8 | 49 | 91.9 | 103 | 92.6 | 86.6 | 47.5 | 101 | 97.6 | 99.9 | 86.4 | 41.1 | 1.52 | 1.61 | 1.62 | – |
| O=c1c(-c2ccc(O)cc2)coc2cc(O)ccc12 [daidzein] | 0 | 0 | – | 0 | 0 | – | – | – | – | – | – | – | – | – | – | – | – | – | – | – | – | – | – | – | – | – | – | – | – | – | – | – | – | – | – |
| Cc1nc2sccn2c(=O)c1CCN1CCC(=C(c2ccccc2)c2ccc(F)cc2)CC1 | 0 | – | 0 | 0 | 0 | > 10 | 104 | 96.3 | 100 | 96.9 | 95.8 | – | – | – | – | – | 95.3 | 86.7 | 97 | 98.4 | 97.2 | 102 | 101 | 107 | 100 | 94.5 | 95.6 | 97.6 | 97.3 | 98.7 | 95 | > 10 | > 10 | > 10 | – |
| CC(C)(NS(=O)(=O)c1ccc(Oc2ccc(F)cc2)cc1)C(=O)NO | 0.3 | 0 | – | – | – | > 10 | 110 | 111 | 98.3 | 110 | 80.7 | 106 | 96.3 | 98.9 | 97.9 | 94.3 | – | – | – | – | – | – | – | – | – | – | – | – | – | – | – | – | – | – | > 10 |
| O=c1c(O)c(-c2ccc(O)cc2)oc2cc(O)cc(O)c12 [kaempferol] | 0 | – | 0.9 | 0 | 0 | > 10 | 93.8 | 86.9 | 106 | 97.5 | 94.1 | – | – | – | – | – | 98.5 | 99.9 | 97.5 | 95.9 | 82.4 | 101 | 104 | 98.5 | 102 | 103 | 98.2 | 99.6 | 97 | 96.7 | 101 | > 10 | > 10 | > 10 | – |
| COc1cc(Nc2ncc3c(n2)-c2ccc(Cl)cc2C(c2c(F)cccc2OC)=NC3)ccc1C(=O)O [alisertib] | 13.1 | 1.6 | 3.5 | 4.1 | 5.7 | – | 102 | 98 | 58.7 | 66.6 | 61.4 | 106 | 105 | 98.1 | 88.4 | 78.8 | 102 | 90 | 83 | 87.9 | 72.8 | 96.3 | 103 | 84.4 | 82.7 | 67 | 102 | 99.7 | 81.5 | 78.2 | 58.6 | – | – | – | > 10 |
| CSc1nc2ccc3nc(NC(=O)C(c4ccccc4)c4ccccc4)sc3c2s1 [Gue-1654] | 0 | – | 0.7 | 0 | 0 | > 10 | 96.4 | 106 | 98.3 | 102 | 92.6 | – | – | – | – | – | 100 | 100 | 94.7 | 93.6 | 80.5 | 104 | 107 | 99.6 | 97.8 | 105 | 100 | 95.9 | 98.8 | 97.1 | 98.2 | > 10 | > 10 | > 10 | – |
